From patent publication EP3638670B1, “SUBSTITUTED PYRROLOPYRIDINE-DERIVATIVES AS MAP4K1 MODULATORS FOR THE TREATMENT OF CANCER DISEASES” (Bayer Pharma Aktiengesellschaft, priority 2017, dated 2018)

Columns and labels:
[1] = biological target: T1, MAP4K1 (Homo sapiens, UniProt Q92918); test: TR-FRET-based binding competition assay (Tracer 222, GST-fusion protein); conditions: inhibition of binding of Tracer 222 (15 nM) to GST-fusion protein (1 nM), 30 min at 22°C
T1 construct: A recombinant fusion protein of N-terminal GST and full-length human; made in house; host or cells: baculovirus-infected SF9 insect cells
Excerpt: The ability of the compounds of the present invention to inhibit the binding of an Alexa647-labelled ATP-competitive kinase inhibitor to a Glutathione-S-transferase- (GST-) fusion protein was quantified employing the TR-FRET-based binding competition assay as described in the following paragraphs.
A recombinant fusion protein of N-terminal GST and full-length human , expressed by baculovirus infected SF9 insect cells and purified by Glutathione Sepharose affinity chromatography, was used as GST- fusion protein. Tracer 222 from Invitrogen (catalogue no. PR9198A) was used as Alexa647-labelled ATP-competitive kinase inhibitor. For the assay 50 nl of a 100fold concentrated solution of the test compound in DMSO was pipetted into either a black low volume 384well microtiter plate or a black 1536well microtiter plate (both Greiner Bio-One, Frickenhausen, Germany), 3 µl solution of Tracer 222 (25 nM => final concentration in 5 µl assay volume is 15 nM) in aqueous assay buffer [25 mM Tris/HCI pH 7.5, 10 mM MgCl2, 5 mM β-glycerolphosphate, 2.5 mM dithiothreitol, 0.5 mM ethylene glycol-bis(2-aminoethylether)-N,N,N',N'-tetraacetic acid [EGTA], 0.5 mM sodium orthovanadate, 0.01 % (w/v) bovine serum albumin [BSA], 0.005% (w/v) Pluronic F-127 (Sigma)] were added. Then the binding competition was started by the addition of 2 µl of a solution of the GST- fusion protein (2.5 nM => final conc. in the 5 µl assay volume is 1 nM) and of Anti-GST-Tb (1.25 nM => final conc. in the 5 µl assay volume is 0.5 nM), a Lumi4®-Tb Cryptate-conjugated anti-GST-antibody from Cisbio Bioassays (France), in assay buffer.
The resulting mixture was incubated 30 min at 22°C to allow the formation of a complex between the Tracer 222, the fusion protein and Anti-GST-Tb. Subsequently the amount of this complex was evaluated by measurement of the resonance energy transfer from the Tb-cryptate to the Tracer 222. Therefore, the fluorescence emissions at 620 nm and 665 nm after excitation at 350 nm were measured in a TR-FRET reader, e.g. a Pherastar (BMG Labtechnologies, Offenburg, Germany) or a Viewlux (Perkin-Elmer). The ratio of the emissions at 665 nm and at 622 nm was taken as the measure for the amount of the complex. The data were normalised (assay reaction without inhibitor = 0 % inhibition, all other assay components but GST- fusion protein = 100 % inhibition). […] Table 1: Measured IC50 values of compounds regarding inhibition

[2] = test system: pSer376-SLP-76; test: Phosphorylation assay in human cell line (pSer376-SLP-76, capillary electrophoresis); format: cell-based; conditions: 0.5 h, Jurkat E6.1 cells overexpressing FLAG-tagged SLP-76, a-CD3 (OKT3) stimulation, 30 min at 37 °C; for activity at 10 µM: 10µM compound, read-out: % amount of pSer376-SLP-76 @ 10µM; for activity at 20 µM: 20µM compound, read-out: % amount of pSer376-SLP-76 @ 20µM
Protocol: Phosphorylation assays were carried out in Jurkat E6.1 cells from American Type Culture Collection (ATCC) stably overexpressing human FLAG-tagged SLP-76 (proprietary). Cultured cells were kept in RPMI 1640 medium supplemented with 1% FCS at a cell density of 2x 10e6/mL 24h prior compound testing. Starved cells were simultaneously treated with 350 ng/mL a-CD3 antibody (clone OKT3. ebioscience #16-0037-85. plate-bound) and test compound for 30 min at 37 °C. Applied compounds were tested at either fixed concentration of 10 µmol/L and 20 µmol/L or in a 8 point dose response titration of increase compound concentration with 10 nmol/L. 50 nmol/L. 100 nmol/L. 500 nmol/L. 1 µmol/L. 5 µmol/L. 10 µmol/L and 20 µmol/L in triplicates. The cells were washed once in phosphate-buffered saline (pH 7.4). Cells were lysed using a lysis buffer containing 50 mmol/L Tris-CI (pH 7.5). 150 mM NaCl. 2 mM EDTA. 1% Triton-X 100. 0.5 % Na-DOC. 0.1% SDS. 1/10 complete mini protease inhibitor cocktail (Roche #11836170001) and 1/10 PhosSTOP phosphatase inhibitor cocktail (Roche #04906837001). A total of 1.25 µg cell lysate was analyzed by capillary electrophoresis using the Peggy Sue™ System (proteinsimple® San Jose. CA USA) with a 12-230kDa sizebased master kit with split buffer / a-rabbit-HRP #PS-MK18 / a-mouse-HRP #PS-MK19 according to manufacture's protocol. Probe antibodies used were a rabbit monoclonal antibody supernatant raised against human phospho-Ser376-SLP-76 peptide (proprietary) and for mormalization an a-alpha-Tubulin. mouse monoclonal antibody (Sigma #T9026). As control for maximal effect (max control. which represent the maximally possible inhibition of pSer376-SLP-76 by a test compound) cells with no a-CD3 (clone OKT3. ebioscience #16-0037-85. plate-bound) and no test compound treatment were used. Cells with a-CD3 treatment only were used as negative control (min control. which represent the minimally possible inhibition of pSer376-SLP-76 by a test compound)
AUC values of each respective test sample were normalized using the AUC of housekeeping gene alpha-Tubulin and AUC of pSer376-SLP-76 of the min control. The percentage of the amount of pSer-SLP-76 in the treatment samples was calculated using the max control and min control values of the respective Peggy Sue™ run. Table 3: Measured % amount of pSer376-SLP-76 of compound

T1 sequence (Q92918 whole entry, the tested form may be a part): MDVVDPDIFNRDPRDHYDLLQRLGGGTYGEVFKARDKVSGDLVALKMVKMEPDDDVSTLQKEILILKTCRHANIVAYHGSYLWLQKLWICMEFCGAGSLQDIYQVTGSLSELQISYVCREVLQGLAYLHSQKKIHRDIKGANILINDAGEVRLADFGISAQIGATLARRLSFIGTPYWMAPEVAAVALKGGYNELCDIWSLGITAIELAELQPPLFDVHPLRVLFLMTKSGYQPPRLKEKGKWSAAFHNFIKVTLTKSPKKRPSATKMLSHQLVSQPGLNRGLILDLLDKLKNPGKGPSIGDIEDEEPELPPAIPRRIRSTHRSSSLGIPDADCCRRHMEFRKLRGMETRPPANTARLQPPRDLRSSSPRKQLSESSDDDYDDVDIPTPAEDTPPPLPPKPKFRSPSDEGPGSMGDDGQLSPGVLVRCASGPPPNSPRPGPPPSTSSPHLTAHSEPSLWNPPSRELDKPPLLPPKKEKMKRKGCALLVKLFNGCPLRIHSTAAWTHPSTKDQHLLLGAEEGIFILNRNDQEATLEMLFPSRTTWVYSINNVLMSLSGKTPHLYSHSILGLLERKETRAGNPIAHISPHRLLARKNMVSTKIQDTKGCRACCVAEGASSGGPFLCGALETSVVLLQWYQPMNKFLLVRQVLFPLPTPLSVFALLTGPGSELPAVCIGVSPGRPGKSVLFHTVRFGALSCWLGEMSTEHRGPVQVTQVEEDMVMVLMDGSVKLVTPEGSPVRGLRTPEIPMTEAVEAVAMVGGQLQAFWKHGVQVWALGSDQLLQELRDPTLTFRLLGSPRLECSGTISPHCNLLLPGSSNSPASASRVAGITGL

SMILES | IC50 [1] | activity at 10 µM [2] | activity at 20 µM [2]
O=C(NCCN1CCOCC1)Nc1ccc(Oc2ccnc3[nH]cc(C(F)(F)F)c23)c(C(F)(F)F)c1 [Example 1, 1-[2-(morpholin-4-yl)ethyl]-3-[3-(trifluoromethyl)-4-{[3-(trifluoromethyl)-1H-pyrrolo[2,3-b]pyridin-4-yl]oxy}phenyl]urea] | 0.0694 µM | 25.2% | 5.5%
NC(=O)Nc1ccc(Oc2ccnc3[nH]cc(Cl)c23)c(C(F)(F)F)c1 [Example 8, 1-{4-[(3-chloro-1H-pyrrolo[2,3-b]pyridin-4-yl)oxy]-3-(trifluoromethyl)phenyl}urea] | 0.188 µM | 92.7% | 73.6%
NC(=O)Nc1ccc(Oc2ccnc3[nH]cc(C(F)(F)F)c23)c(C(F)(F)F)c1 [Example 3, 1-[3-(trifluoromethyl)-4-{[3-(trifluoromethyl)-1H-pyrrolo[2,3-b]pyridin-4-yl]oxy}phenyl]urea] | 0.0562 µM | 21% | 2.6%
O=C(NCCCN1CCOCC1)Nc1ccc(Oc2ccnc3[nH]cc(Cl)c23)c(C(F)(F)F)c1 [Example 6, 1-{4-[(3-chloro-1H-pyrrolo[2,3-b]pyridin-4-yl)oxy]-3-(trifluoromethyl)phenyl}-3-[3-(morpholin-4-yl)propyl]urea] | 0.158 µM | 69.9% | 29.5%
O=C(Nc1ccc(Oc2ccnc3[nH]cc(Cl)c23)c(C(F)(F)F)c1)Nc1cccnn1 [Example 9, 1-{4-[(3-chloro-1H-pyrrolo[2,3-b]pyridin-4-yl)oxy]-3-(trifluoromethyl)phenyl}-3-pyridazin-3-ylurea] | 1.26 µM |  | 
O=C(NCCN1CCOCC1)Nc1cc(F)c(Oc2ccnc3[nH]cc(C(F)(F)F)c23)c(C(F)(F)F)c1 [Example 5, 1-[3-fluoro-5-(trifluoromethyl)-4-{[3-(trifluoromethyl)-1H-pyrrolo[2,3-b]pyridin-4-yl]oxy}phenyl]-3-[2-(morpholin-4-yl)ethyl]urea] | 0.0646 µM | 27.1% | < 1%
Cc1ncc(NC(=O)Nc2ccc(Oc3ccnc4[nH]cc(Cl)c34)c(C(F)(F)F)c2)cn1 [Example 10, 1-{4-[(3-chloro-1H-pyrrolo[2,3-b]pyridin-4-yl)oxy]-3-(trifluoromethyl)phenyl}-3-(2-methylpyrimidin-5-yl)urea] | 0.171 µM | 15.9% | < 1%
O=C(NCCN1CCOCC1)Nc1ccc(Oc2ccnc3[nH]cc(Cl)c23)c(C(F)(F)F)c1 [Example 7, 1-{4-[(3-chloro-1H-pyrrolo[2,3-b]pyridin-4-yl)oxy]-3-(trifluoromethyl)phenyl}-3-[2-(morpholin-4-yl)ethyl]urea] | 0.124 µM | 5.1% | < 1%
COc1cc(NC(=O)NCCCN2CCOCC2)ccc1Oc1ccnc2[nH]cc(C(F)(F)F)c12 [Example 11, 1-(3-methoxy-4-{[3-(trifluoromethyl)-1H-pyrrolo[2,3-b]pyridin-4-yl]oxy}phenyl)-3-[3-(morpholin-4-yl)propyl]urea] | 0.315 µM | 68.1% | 53.8%
O=C(NCCCN1CCOCC1)Nc1cc(F)c(Oc2ccnc3[nH]cc(C(F)(F)F)c23)c(C(F)(F)F)c1 [Example 4, 1-[3-fluoro-5-(trifluoromethyl)-4-{[3-(trifluoromethyl)-1H-pyrrolo[2,3-b]pyridin-4-yl]oxy}phenyl]-3-[3-(morpholin-4-yl)propyl]urea] | 0.065 µM | 17% | < 1%
O=C(NCCCN1CCOCC1)Nc1ccc(Oc2ccnc3[nH]cc(C(F)(F)F)c23)c(OC(F)(F)F)c1 [Example 12, 1-[3-(morpholin-4-yl)propyl]-3-[3-(trifluoromethoxy)-4-{[3-(trifluoromethyl)-1H-pyrrolo[2,3-b]pyridin-4-yl]oxy}phenyl]urea] | 0.469 µM | 61.8% | 23.9%
O=C(NCCN1CCOCC1)Nc1ccc(Oc2ccnc3[nH]cc(C(F)(F)F)c23)c(OC(F)(F)F)c1 [Example 13, 1-[2-(morpholin-4-yl)ethyl]-3-[3-(trifluoromethoxy)-4-{[3-(trifluoromethyl)-1H-pyrrolo[2,3-b]pyridin-4-yl]oxy}phenyl]urea] | 0.439 µM |  | 
O=C(NCCCN1CCOCC1)Nc1ccc(Oc2ccnc3[nH]cc(C(F)(F)F)c23)c(C(F)(F)F)c1 [Example 2, 1-[3-(morpholin-4-yl)propyl]-3-[3-(trifluoromethyl)-4-{[3-(trifluoromethyl)-1H-pyrrolo[2,3-b]pyridin-4-yl]oxy}phenyl]urea] | 0.0562 µM | 25.1% | 6.5%
